Laboratory results published in paper PMC6316393, “Cytotoxic Sesterterpenes from Thai Marine Sponge Hyrtios erectus” (Marine Drugs, 2018).
Like-named read-outs stand apart in the source and are kept apart here.

Key:
[1] = tested on: MOLT-3 (acute lymphoblastic leukemia); test: XTT cytotoxicity assay, MOLT-3; details: for selectivity index (SI), MOLT-3: ratio of IC50 of normal cell (MRC-5) and IC50 of MOLT-3
Method: (§1) The SI value is the ratio of IC50 of normal cell (MRC-5) and IC50 of cancer cell line.
(§2) Cytotoxic activity for adhesive cell lines including HepG2, HeLa, HuCCA-1, A549, H69AR, KB, T47D, MDA-MB-231, and MRC-5 cell lines were evaluated with the 3-(4,5-dimethylthiazol-2-yl)-2,5-diphenyltetrazoliumbromide (MTT) assay. For the non-adhesive MOLT-3 cell line, the cytotoxicity was assessed using the 2,3-bis-(2-methoxy-4-nitro-5-sulphenyl-(2H)-tetrazolium-5-carboxanilide (XTT) assay. Etoposide and doxorubicin were used as positive controls (Table 4)

HepG2 (hepatocarcinoma) = test: MTT cytotoxicity assay, HepG2
Method: as §1, §2

[2] = tested on: HeLa (human cervical carcinoma); test: MTT cytotoxicity assay, HeLa
Method: as §1, §2

[3] = tested on: HuCCA-1 (human chlolangiocarcinoma); test: MTT cytotoxicity assay, HuCCA-1
Method: as §1, §2

[4] = tested on: A549 (non-small-cell lung cancer); test: MTT cytotoxicity assay, A549
Method: as §1, §2

[5] = tested on: MDA-MB-231 (hormone independent breast cancer); test: MTT cytotoxicity assay, MDA-MB-231
Method: as §1, §2

[6] = MTT cytotoxicity assay, MRC-5 normal cells; details: human
Method: as §1, §2

[7] = tested on: MRC-5 (normal embryonic lung cell); test: MTT cytotoxicity assay, MRC-5 normal cells; details: read-out: Cytotoxicity IC50, MRC-5; MRC-5 normal cell line, MTT assay
Method: as §1, §2

[8] = tested on: L1210 (mouse lymphocytic leukemia); details: read-out: Cytotoxicity IC50, L1210, cited from earlier work
[9] = tested on: KB (mouth epidermal carcinoma); parameters: method as in PMID 8149454; details: previously reported; read-out: Cytotoxicity IC50, KB; cited from earlier work
[10] = tested on: H69AR (multidrug resistance small-cell lung cancer); test: MTT cytotoxicity assay, H69AR; assay type: cell-based; details: Homo sapiens, H69AR cell line
Method: (§3) Cytotoxic activity for adhesive cell lines including HepG2, HeLa, HuCCA-1, A549, H69AR, KB, T47D, MDA-MB-231, and MRC-5 cell lines were evaluated with the 3-(4,5-dimethylthiazol-2-yl)-2,5-diphenyltetrazoliumbromide (MTT) assay [25, 26]. For the non-adhesive MOLT-3 cell line, the cytotoxicity was assessed using the 2,3-bis-(2-methoxy-4-nitro-5-sulphenyl-(2H)-tetrazolium-5-carboxanilide (XTT) assay [27]. Etoposide and doxorubicin were used as positive controls (Table 4)

[11] = tested on: KB (human epidermoid carcinoma in the mouth); test: MTT cytotoxicity assay, KB; assay type: cell-based; details: KB cell line
Method: as §1, §2

[12] = tested on: T47D (hormone dependent breast cancer); test: MTT cytotoxicity assay, T47D; assay type: cell-based; details: Homo sapiens, T47D cell line
Method: as §3

A549 cells = tested on: A549 cells; parameters: method as in PMID 12662110; details: reported in the literature; read-out: Cytotoxicity IC50, A549; cited from earlier work
[13] = Homo sapiens, MOLT-3, read-out: Cytotoxicity IC50, MOLT-3, MOLT-3 cell line, XTT assay
[14] = Homo sapiens, HepG2, read-out: Cytotoxicity IC50, HepG2, HepG2 cell line, MTT assay
[15] = Homo sapiens, HeLa, read-out: Cytotoxicity IC50, HeLa, HeLa cell line, MTT assay
[16] = Homo sapiens, HuCC-A1, read-out: Cytotoxicity IC50, HuCCA-1, HuCCA-1 cell line, MTT assay
[17] = Homo sapiens, A549, read-out: Cytotoxicity IC50, A549, A549 cell line, MTT assay
[18] = Homo sapiens, MDA-MB-231, read-out: Cytotoxicity IC50, MDA-MB-231, MDA-MB-231 cell line, MTT assay
[19] = read-out: Cytotoxicity IC50, HeLa, HeLa cell line, MTT assay
[20] = read-out: Cytotoxicity IC50, MDA-MB-231, MDA-MB-231 cell line, MTT assay
[21] = MRC-5 cells (normal embryonic lung cells), Cytotoxicity IC50, MRC-5, MRC-5 normal cell line, MTT assay
[22] = Homo sapiens, MOLT-3, read-out: Cytotoxicity IC50, MOLT-3
[23] = Homo sapiens, HepG2, read-out: Cytotoxicity IC50, HepG2
[24] = Homo sapiens, HeLa, read-out: Cytotoxicity IC50, HeLa
[25] = Homo sapiens, HuCC-A1, read-out: Cytotoxicity IC50, HuCCA-1
[26] = Homo sapiens, A549, read-out: Cytotoxicity IC50, A549
[27] = Homo sapiens, MDA-MB-231, read-out: Cytotoxicity IC50, MDA-MB-231

| Compound | IC50 [1, 13] | IC50 (HepG2 (hepatocarcinoma); [14]) | IC50 [2, 15] | IC50 [3, 16] | IC50 [4, 17] | IC50 [5, 18] | also measured |
| --- | --- | --- | --- | --- | --- | --- | --- |
| 4-((2R)-2-hydroxy-16-methyloctadecyl)furan-2(5H)-one [Compound 5] | – | – | – | – | – | – | IC50 [1]: 31.8 µM; IC50 (HepG2 (hepatocarcinoma)): 107 µM; IC50 [2]: 28.8 µM; IC50 [3]: 65.6 µM; IC50 [4]: 57.2 µM; IC50 [5]: 89.3 µM |
| COC1OC(=O)C=C1C(O)CC=C(C=O)CCC=C(C)CCC1=C(C)CCCC1(C)C (stereo not drawn) [Compound 3, seco-manoalide-25-methyl ether] | 15.8 µM | 27.9 µM | 20 µM | 24.7 µM | 41.1 µM | 40.1 µM | – |
| CC(=O)OC/C(=C\CC1OC(=O)C=C1CO)CC/C=C(\C)CCC1=C(C)CCCC1(C)C (stereo not drawn) [Compound 7, (6Z)-neomanoalide-24-acetate] | 40.1 µM | > 50 µg/mL | 88 µM | > 50 µg/mL | > 50 µg/mL | > 50 µg/mL | – |
| COC1OC(C2=CC(=O)OC2O)CC=C1CCC=C(C)CCC1=C(C)CCCC1(C)C (stereo not drawn) [Compound 8, 24-O-methylmanoalide] | 1.77 µM | 53.5 µM | – | 11 µM | 16.8 µM | – | selectivity index (SI), MOLT-3 [1]: 7; IC50 [2, 19]: 8.42 µM; IC50 [5, 20]: 39.5 µM; IC50 [6, 21]: 13 µM |
| COC1OC(C2=CC(=O)OC2O)CC=C1CCC=C(C)CCC1=C(C)CCCC1(C)C (stereo not drawn) [Compound 9, 24-O-methylmanoalide] | – | – | – | – | – | – | selectivity index (SI), MOLT-3 [1]: 8; IC50 ([1]; read-out: Cytotoxicity IC50, MOLT-3, MOLT-3 cell line, XTT assay): 1.3 µM; IC50 (HepG2 (hepatocarcinoma); read-out: Cytotoxicity IC50, HepG2, HepG2 cell line, MTT assay): 27.9 µM; selectivity index (SI), HeLa ([2]; ratio of IC50 of normal cell (MRC-5) and IC50 of HeLa): 7; IC50 [2, 19]: 1.51 µM; IC50 ([3]; read-out: Cytotoxicity IC50, HuCCA-1, HuCCA-1 cell line, MTT assay): 8.6 µM; IC50 ([4]; read-out: Cytotoxicity IC50, A549, A549 cell line, MTT assay): 12 µM; IC50 [5, 20]: 18.6 µM; IC50 [7]: 10.8 µM |
| CC1=C(CC/C(C)=C/CC/C(=C/C[C@@H](O)C2=CC(=O)OC2)CO)C(C)(C)CCC1 [Compound 10, luffariolide B] | 35.5 µM | > 50 µg/mL | 78.7 µM | > 50 µg/mL | > 50 µg/mL | > 50 µg/mL | IC50 [8]: 3.23 µM |
| CC1=C(CC/C(C)=C/CCC2=CC[C@H](C3=CC(=O)O[C@H]3O)O[C@H]2O)C(C)(C)CCC1 [Compound 11, manoalide] | – | – | – | – | – | – | IC50 [1, 22]: 17.4 µM; IC50 (HepG2 (hepatocarcinoma); [23]): > 50 µg/mL; IC50 [2, 24]: 87 µM; IC50 [3, 25]: 84.5 µM; IC50 [4, 26]: > 50 µg/mL; IC50 [5, 27]: > 50 µg/mL; IC50 ([8]; previously reported): 0.053 µM; IC50 [9]: 0.63 µM |
| CC1=C(CC/C(C)=C/CC/C(=C\CC2OC(=O)C=C2CO)CO)C(C)(C)CCC1 (stereo not drawn) [Compound 12, (6E)-neomanoalide] | 37.8 µM | > 50 µg/mL | 79.2 µM | 119 µM | > 50 µg/mL | > 50 µg/mL | IC50 [8]: 24.4 µM |
| CC1=C(CC/C(C)=C/CC/C(=C/CC2OC(=O)C=C2CO)CO)C(C)(C)CCC1 (stereo not drawn) [Compound 13, (6Z)-neomanoalide] | 34.1 µM | 88.7 µM | 59.3 µM | 94.7 µM | 114 µM | 92 µM | IC50 [8]: 13.9 µM |
| CC1=C(CC/C(C)=C/CC/C(C=O)=C\C[C@@H](O)C2=CC(=O)OC2O)C(C)(C)CCC1 (stereo partly drawn) [Compound 14, seco-manoalide] | – | – | – | – | – | – | IC50 [1, 22]: 6.68 µM; IC50 (HepG2 (hepatocarcinoma); [23]): 102 µM; IC50 [2, 24]: 21.8 µM; IC50 [3, 25]: 47.4 µM; IC50 [4, 26]: 58.1 µM; IC50 [5, 27]: 84.1 µM; IC50 [6]: 17.5 µM |
| CC(=O)O[C@H]1C[C@H]2[C@]3(C)CC[C@H]4C(C)(C)CCC[C@]4(C)[C@H]3C[C@@H](O)[C@]2(C)c2cocc21 [Compound 15, scalarafuran] | – | – | 63.1 µM | 49.1 µM | – | 14 µM | IC50 [10]: 51.4 µM; IC50 [11]: 58.4 µM; IC50 [12]: 28 µM |
| CC1=C(CC[C@@](C)(O)[C@@H]2CCC(=O)O2)C(C)(C)CCC1 [Compound 16, cavernosine] | 124 µM | > 50 µg/mL | 77.5 µM | > 50 µg/mL | > 50 µg/mL | > 50 µg/mL | – |
| CC(=O)O[C@@H]1CC2[C@@]3(C)CCCC(C)(C)C3CC[C@@]2(C)C2CCC3=C(C(=O)OC3)[C@]21C (stereo partly drawn) [Compound 17, 12-acetylscalarolide] | – | – | 63.1 µM | 60.8 µM | – | 60.8 µM | IC50 [10]: 107 µM; IC50 [11]: 63.1 µM; IC50 [12]: 42.1 µM |
| CC1(C)CCC[C@@]2(C)C1CC[C@]1(C)C2C[C@@H](O)[C@]2(C)C3COC(=O)C3=CCC12 (stereo partly drawn) [Compound 18, 12-epi-O-deacetyl-19-deoxyscalarin] | – | – | 23.3 µM | 41.5 µM | – | 5.96 µM | IC50 [10]: 57 µM; IC50 [11]: 6.99 µM; IC50 [12]: 5.18 µM |
| CC(=O)O[C@@H]1CC2[C@@]3(C)CCCC(C)(C)C3CC[C@@]2(C)C2CC=C3C(=O)OC(O)C3[C@]21C (stereo partly drawn) [Compound 19, 12-epi-scalarin] | 13.8 µM | 75.5 µM | 65.3 µM | 60.8 µM | 60.8 µM | – | – |
| CC1(C)CCC[C@@]2(C)C1CC[C@]1(C)C2C[C@@H](O)[C@]2(C)C3C(=CCC12)C(=O)OC3O (stereo partly drawn) [Compound 20, 12-O-deacetyl-12-epi-scalarin] | 7.64 µM | 27.4 µM | – | 87.1 µM | 73.4 µM | – | selectivity index (SI), MOLT-3 [1]: 9; IC50 [6, 21]: 71 µM; IC50 (A549 cells): 36.8 µM |
| COC(=O)c1cc2c(cn1)[nH]c1ccc(O)cc12 [Compound 23, variabine B] | 78 µM | > 50 µg/mL | > 50 µg/mL | > 50 µg/mL | > 50 µg/mL | – | – |
| COc1cccc2c1C(=O)c1c(O)c3c(c(O)c1C2=O)C[C@@](O)(C(=O)CO)C[C@@H]3O[C@H]1C[C@H](N)[C@H](O)[C@H](C)O1 [Doxorubicin, reference compound] | – | 0.36 ± 0.05 µM | 0.19 µM | 0.4 ± 0.03 µM | 0.35 ± 0.02 µM | 1.64 ± 0.17 µM | IC50 [11]: 1.64 ± 0.15 µM; IC50 [6, 21]: 3.16 ± 0.1 µM |
| COc1cc([C@@H]2c3cc4c(cc3[C@@H](O[C@@H]3O[C@@H]5CO[C@@H](C)O[C@H]5[C@H](O)[C@H]3O)[C@H]3COC(=O)[C@H]23)OCO4)cc(OC)c1O [Etoposide, reference compound] | 0.04 ± 0.01 µM | – | – | – | – | – | – |
